Test results reported in patent EP4610270A1, “NOVEL ANTIMICROBIAL PEPTIDE AND PHARMACEUTICAL COMPOSITION THEREOF” (Qingdao Sensheng Biopharmaceutical Technology Co., Ltd, priority 2022, dated 2024).

Assays:
[1] = test system: RAW264.7 mouse macrophage cell line; experiment: Anti-inflammatory experiment: NO release after LPS stimulation (Griess); type: cell-based; conditions: antimicrobial peptide 80 µM; 1 µg/ml LPS stimulation; FIG. 4
From the text: NO is a diffusible and membrane permeable small molecule obtained during the oxidation of L-arginine by NOS. NO was associated with many physiological reactions in organisms. […] But at low concentrations, NO could act as a signal to positively and negatively regulate innate and acquired immunity. Thus, by detecting the concentration of NO released by cells, the inflammatory response of cells could be detected.
The RAW264.7 mouse macrophage cell line was used as the experimental material and cultured in a DMEM high glucose medium containing FBS (10%) and penicillin-streptomycin dual antibody (100 U/ml). The RAW264.7 mouse macrophage cell line was used for experiments when the cell state was stable, the shape was full, and the edges were transparent.
• 1. The culture medium was removed from the cells and gently purged twice with PBS at room temperature to remove excess culture medium. After digestion with 0.25% trypsin for 3 min, the culture bottle was gently tapped to induce cell detachment, and then the culture medium was added to terminate digestion. The culture bottle was repeatedly blown and beaten to make the cells uniform. • 2. […]
4.2 In this experiment, NO was detected by the method provided in the total nitric oxide content determination kit, and improvements were made. […]

[2] = test system: Human red blood cells (RBC); type: cell-based
Procedure: Human red blood cells (RBC) were used to detect the hemolytic activity of Ac-SH-17. All subjects provided written informed consent. The obtained healthy human blood was placed in an EDTA anticoagulant tube. Red blood cells were collected by centrifugation and suspended in PBS to a concentration of 4% (v/v). An equal portion of 200 µl red blood cell suspension was mixed with 200 µl of Ac-SH-17 solution at different concentrations (12.5, 25, 50, 100, and 200 µg/ml). After incubation at 37°C, the mixture was centrifuged […], and the supernatant was collected and added to a 96-well plate. Red blood cells incubated with PBS, BSA solution (100 µg/ml), or 0.1% Triton X-100 solution were used as blank control, negative control, and positive control, respectively. The absorbance was measured at 540 nm using a microplate reader. Three parallel samples were set up for each experiment, and the experiment was repeated at least three times. The results were analyzed for significant differences by a two-way ANOVA method, with p<0.05 indicating significant differences. Table 3.1 Hemolysis analysis

[3] = test system: Escherichia coli 25922 (ATCC 25922, E. coli 25922); experiment: Antimicrobial activity by liquid antimicrobial / turbidimetric method (OD540, microplate reader); type: cell-based; conditions: E. coli drug sensitive strain; FIG. 1
Procedure: (§1) The materials of Gram negative bacteria and Gram positive bacteria used in the embodiments of the present disclosure include Gram negative bacteria Escherichia coli strain Escherichia coli 25922 (ATCC 25922, E. coli 25922) and Gram positive bacteria Staphylococcus aureus strain Staphylococcus aureus 25923 (ATCC 25923, S. aureus 25923). […] 100 µl of the sample was immediately taken and placed in a microplate reader to measure its OD540, which was recorded as OD 0h. Then the sample was placed in a 37°C constant temperature incubator for cultivation, 100 µl of the sample was taken every 1 h, and the OD540 of each centrifuge tube was measured. Based on the changes in absorbance, the growth of bacteria could be determined, and the antimicrobial activity and minimum inhibitory concentration (MIC) of the polypeptide could be determined. […] 100 µl of the sample was immediately taken and placed in a microplate reader to measure its OD540, which was record as OD 0h. Then the sample was placed in a 37°C constant temperature incubator for cultivation, 100 µl of the sample was taken every 1 h, and the OD540 of each centrifuge tube was measured once.

[4] = test system: Staphylococcus aureus 25923 (ATCC 25923, S. aureus 25923); experiment: as above; type: cell-based; conditions: S. aureus drug sensitive strain; FIG. 2
Procedure: as §1

[5] = Antisepsis experiment: survival in fecal homogenate sepsis model; type: in vivo, SD rats; conditions: intraperitoneal 0.5 ml of 80 µM; within 24 h; compared to the model group; FIG. 5
Procedure: Sepsis refers to a systemic inflammatory response syndrome caused by infectious factors. A rat model of intestinal sepsis was established by injecting rat fecal homogenate into the abdominal cavity of model rats, followed by intraperitoneal injection of antimicrobial peptides to observe the survival rate of mice within 10-48 h, in order to evaluate the therapeutic effect of antimicrobial peptides on sepsis in mice.
60 SD rats were randomly divided into 6 groups by a random number table method, i.e., model group 1, model group 2, model group 3, model group 4, model group 5, and blank group, with 10 rats in each group. These 6 groups of rats were weighed and numbered in sequence.
After 1 week of adaptive feeding, fresh formed feces were collected from these 60 SD rats. After weighing the rat feces, an appropriate amount of physiological saline was added to it, and then the mixture was placed in a homogenizer for thorough grinding to prepare a rat feces homogenate at the concentration of 10%. The rat fecal homogenate was centrifuged at 3000 rpm for 5 min to obtain the supernatant, and then a syringe was used to suck out an appropriate amount of the supernatant for later use.
Before modeling, rats in model groups 1-5 were fasted for 12 hours, and then a 10% concentration of rat feces homogenate supernatant was injected intraperitoneally at a dose of 1 ml/200 g. […]

For “Ac-SRMKKWAKIIEKWRKWH-NH2 [Ac-SH-17, Ac-SRMKKWAKIIEKWRKWH-NH2]”, the “inhibition of the release of NO” value [1] was “significantly inhibited the release of NO”, the “release concentration of NO” value [1] was “substantially the same as that of the blank control” and the “OD Value” [2] was 0.061±0.013. The hemolytic effect [2] was “does not have significant hemolytic effect”, the “Hemolysis Ratio (%)” value ([2]; red cells of human) was 4.40% and the antimicrobial activity [3] was “exhibited antimicrobial activity”. The antimicrobial activity [4] was “exhibited antimicrobial activity” and the survival rate [5] was “significantly improved the survival rate”.
